We go through 22 compounds from US9878986B2, “Compounds for selective histone deacetylase inhibitors, and pharmaceutical composition comprising the same” (CHONG KUN DANG PHARMACEUTICAL CORP., priority 2013, dated 2018).

The target of experiment [1] is T1, HDAC 6 (Homo sapiens, UniProt Q9UBN7).
T1 sequence (Q9UBN7 1-1215): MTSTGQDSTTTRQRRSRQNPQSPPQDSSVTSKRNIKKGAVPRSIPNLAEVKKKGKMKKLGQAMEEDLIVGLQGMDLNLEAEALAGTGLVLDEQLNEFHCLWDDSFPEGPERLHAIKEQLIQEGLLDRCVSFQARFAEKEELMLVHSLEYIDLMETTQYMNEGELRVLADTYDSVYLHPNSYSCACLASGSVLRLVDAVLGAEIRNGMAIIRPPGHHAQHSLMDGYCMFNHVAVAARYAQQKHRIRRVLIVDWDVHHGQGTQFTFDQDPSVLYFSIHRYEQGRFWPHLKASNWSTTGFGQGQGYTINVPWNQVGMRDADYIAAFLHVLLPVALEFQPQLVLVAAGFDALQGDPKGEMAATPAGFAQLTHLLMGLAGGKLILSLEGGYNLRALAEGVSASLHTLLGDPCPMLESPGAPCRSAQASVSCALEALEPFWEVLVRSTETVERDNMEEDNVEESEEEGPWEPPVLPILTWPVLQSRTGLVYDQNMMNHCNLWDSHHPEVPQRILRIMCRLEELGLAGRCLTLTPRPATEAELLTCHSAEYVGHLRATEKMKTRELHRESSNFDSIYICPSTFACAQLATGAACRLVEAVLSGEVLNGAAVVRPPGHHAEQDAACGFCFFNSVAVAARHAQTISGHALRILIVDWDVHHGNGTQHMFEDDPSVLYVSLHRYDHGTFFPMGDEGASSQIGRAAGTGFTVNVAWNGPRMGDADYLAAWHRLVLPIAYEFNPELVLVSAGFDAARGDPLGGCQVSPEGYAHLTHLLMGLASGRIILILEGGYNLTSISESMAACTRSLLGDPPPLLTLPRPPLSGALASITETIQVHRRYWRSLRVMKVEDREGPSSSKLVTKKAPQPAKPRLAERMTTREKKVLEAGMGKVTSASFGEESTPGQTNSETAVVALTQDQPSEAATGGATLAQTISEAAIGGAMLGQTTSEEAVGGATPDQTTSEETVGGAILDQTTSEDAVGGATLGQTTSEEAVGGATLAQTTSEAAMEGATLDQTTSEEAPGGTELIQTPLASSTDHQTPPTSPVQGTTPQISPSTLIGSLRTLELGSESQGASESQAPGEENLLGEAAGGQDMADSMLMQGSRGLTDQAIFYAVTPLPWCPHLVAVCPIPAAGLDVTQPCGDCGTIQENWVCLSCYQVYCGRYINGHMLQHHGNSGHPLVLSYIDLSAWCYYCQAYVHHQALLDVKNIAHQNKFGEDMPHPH
The experiment can be described thus: Test of HDAC activities, HDAC6 (fluorimetric). The settings on record: samples at 0.1, 1, 10, 100, 1000 nM; 37° C. 60 minutes; fluorescence Ex 390, Em 460; read-out: HDAC inhibitory activities, HDAC6. On the set-up: purchased Calbiochem 382180. In kind it is biochemical. The method in brief: (§1)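 HDAC1 tested at 100, 1000 and 10000 nM; recombinant human HDAC6 at 0.1, 1, 10, 100 and 1000 nM. Reaction 60 min at 37° C, then developer for 30 min at 37° C; fluorescence read at Ex 390/Em 460.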

In experiment [2] the target is HDAC1 (Homo sapiens, UniProt Q13547). In words: Test of HDAC activities, HDAC1 Fluorimetric Drug Discovery Assay Kit. In kind it is biochemical. On the set-up: purchased Enzolifesciences BML-AK511. The conditions noted are these: samples at 100, 1000, 10000 nM; 37° C. 60 minutes; fluorescence Ex 390, Em 460; read-out: HDAC inhibitory activities, HDAC1. The method in brief:
as §1

SMILES strings stand for the structures. Counter-ions that a name gives are not always drawn.

Sequence of HDAC1 (Q13547 whole entry): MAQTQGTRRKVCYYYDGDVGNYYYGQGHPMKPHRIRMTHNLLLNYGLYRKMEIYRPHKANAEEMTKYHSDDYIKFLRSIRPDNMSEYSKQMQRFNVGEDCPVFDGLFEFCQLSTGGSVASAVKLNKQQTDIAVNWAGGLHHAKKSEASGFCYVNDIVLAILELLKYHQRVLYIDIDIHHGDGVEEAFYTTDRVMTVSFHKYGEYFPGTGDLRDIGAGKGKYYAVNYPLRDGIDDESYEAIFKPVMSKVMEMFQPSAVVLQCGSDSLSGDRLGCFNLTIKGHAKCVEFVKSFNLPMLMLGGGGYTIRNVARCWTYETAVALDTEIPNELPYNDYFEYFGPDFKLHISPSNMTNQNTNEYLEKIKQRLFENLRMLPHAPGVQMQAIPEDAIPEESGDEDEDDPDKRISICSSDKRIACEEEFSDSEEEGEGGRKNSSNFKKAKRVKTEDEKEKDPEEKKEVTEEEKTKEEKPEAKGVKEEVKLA

In the case of `O=C(NO)c1ccc(CN(C(=O)N2CCN(CCO)CC2)c2cccc(-c3ccc4c(c3)OCO4)c2)cc1` [Compound 467, N-(3-(benzo[d][1,3]dioxol-5-yl)phenyl)-N-(4-(hydroxycarbamoyl)benzyl)-4-(2-hydroxyethyl)piperazine-1-carboxamide], the IC50 in experiment [1] was determined as 1 nM; in experiment [2], 240 nM.

Regarding `O=C(NO)c1ccc(CN(C(=O)N2CCCC2)c2cccc(-c3ccc4c(c3)OCO4)c2)cc1` [Compound 468, N-(3-(benzo[d][1,3]dioxol-5-yl)phenyl)-N-(4-(hydroxycarbamoyl)benzyl)pyrrolidine-1-carboxamide], the IC50 in experiment [1] worked out at 10 nM; in experiment [2], 12300 nM.

As to `O=C(NO)c1ccc(CN(C(=O)N2CCC[C@H]2CO)c2cccc(-c3ccc4c(c3)OCO4)c2)cc1` [Compound 469, (S)—N-(3-(benzo[d][1,3]dioxol-5-yl)phenyl)-N-(4-(hydroxycarbamoyl)benzyl)-2-(hydroxymethyl)pyrrolidine-1-carboxamide], the IC50 in experiment [1] stood at 12 nM; in experiment [2], 5340 nM.

Consider `O=C(NO)c1ccc(CN(C(=O)N2CCN(C(=O)C3CC3)CC2)c2cccc(-c3ccc4c(c3)OCO4)c2)cc1` [Compound 470, N-(3-(benzo[d][1,3]dioxol-5-yl)phenyl)-4-(cyclopropanecarbonyl)-N-(4-(hydroxycarbamoyl)benzyl)piperazine-1-carboxamide], for which the IC50 in experiment [1] came out at 1 nM; in experiment [2], 635 nM.

For `O=C(NO)c1ccc(CN(C(=O)N2CCC2)c2cccc(-c3ccc4c(c3)OCO4)c2)cc1` [Compound 471, N-(3-(benzo[d][1,3]dioxol-5-yl)phenyl)-N-(4-(hydroxycarbamoyl)benzyl)azetidine-1-carboxamide], the results for the IC50 in experiment [1] and in experiment [2] were 14 nM and 1150 nM, respectively.

Take `CN1CCN(C(=O)N(Cc2ccc(C(=O)NO)cc2)c2ccc(F)c(Cl)c2)CC1` [Compound 478, N-(3-chloro-4-fluorophenyl)-N-(4-(hydroxycarbamoyl)benzyl)-4-methylpiperazine-1-carboxamide]: the IC50 in experiment [1] was found to be 9 nM; in experiment [2], 190 nM.

As for `CCN1CCN(C(=O)N(Cc2ccc(C(=O)NO)cc2)c2ccc(F)c(Cl)c2)CC1` [Compound 479, N-(3-chloro-4-fluorophenyl)-4-ethyl-N-(4-(hydroxycarbamoyl)benzyl)piperazine-1-carboxamide], the IC50 in experiment [1] stood at 7 nM; in experiment [2], 280 nM.

As for `O=C(NO)c1ccc(CN(C(=O)N2CCN(Cc3ccccc3)CC2)c2ccc(F)c(Cl)c2)cc1` [Compound 480, 4-benzyl-N-(3-chloro-4-fluorophenyl)-N-(4-(hydroxycarbamoyl)benzyl)piperazine-1-carboxamide], the values for the IC50 in experiment [1] and in experiment [2] were 18 nM and 1070 nM, respectively.

Consider `COc1ccccc1N1CCN(C(=O)N(Cc2ccc(C(=O)NO)cc2)c2ccc(F)c(Cl)c2)CC1` [Compound 481, N-(3-chloro-4-fluorophenyl)-N-(4-(hydroxycarbamoyl)benzyl)-4-(2-methoxyphenyl)piperazine-1-carboxamide], for which the values for the IC50 in experiment [1] and in experiment [2] were 15 nM and 2080 nM, respectively.

For `O=C(NO)c1ccc(CN(C(=O)N2CCN(c3ccc(F)cc3)CC2)c2ccc(F)c(Cl)c2)cc1` [Compound 482, N-(3-chloro-4-fluorophenyl)-4-(4-fluorophenyl)-N-(4-(hydroxycarbamoyl)benzyl)piperazine-1-carboxamide], the IC50 in experiment [1] stood at 1 nM; in experiment [2], 680 nM.

Consider `O=C(NO)c1ccc(CN(C(=O)N2CCOCC2)c2cccc(C3CCOCC3)c2)cc1` [Compound 483, N-(4-(hydroxycarbamoyl)benzyl)-N-(3-(tetrahydro-2H-pyran-4-yl)phenyl)morpholine-4-carboxamide], for which the IC50 in experiment [1] is 7 nM; in experiment [2], 840 nM.

Turning to `COc1cccc(N(Cc2ccc(C(=O)NO)cc2)C(=O)N2CCOCC2)c1` [Compound 484, N-(4-(hydroxycarbamoyl)benzyl)-N-(3-methyoxyphenyl)morpholine-4-carboxamide], the IC50 stood at 2 nM in experiment [1] and 680 nM in experiment [2].

As for `O=C(NO)c1ccc(CN(C(=O)N2CC(F)(F)C2)c2ccc(C(F)(F)F)cc2)cc1` [Compound 485, 3,3-difluoro-N-(4-(hydroxycarbamoyl)benzyl)-N-(4-(trifluoromethyl)phenyl)azetidine-1-carboxamide], the IC50 turned out to be 8 nM in experiment [1] and 860 nM in experiment [2].

With `O=C(NO)c1ccc(CN(C(=O)N2CCC(O)(c3ccccc3)CC2)c2ccc(C(F)(F)F)cc2)cc1` [Compound 486, 4-hydroxy-N-(4-(hydroxycarbamoyl)benzyl)-4-phenyl-N-(4-(trifluoromethyl)phenyl)piperidine-1-carboxamide], the IC50 in experiment [1] was found to be 6 nM; in experiment [2] it was 1450 nM.

Take `O=C(NO)c1ccc(CN(C(=O)N2CCOCC2)c2cccc(Br)c2)c(F)c1` [Compound 487, N-(3-bromophenyl)-N-(2-fluoro-4-(hydroxycarbamoyl)benzyl)morpholine-4-carboxamide]: the IC50 came out at 7 nM in experiment [1] and 178 nM in experiment [2].

Regarding `O=C(NO)c1ccc(CN(C(=O)N2CCC(O)CC2)c2cccc(Br)c2)c(F)c1` [Compound 488, N-(3-bromophenyl)-N-(2-fluoro-4-(hydroxycarbamoyl)benzyl)-4-hydroxypiperidine-1-carboxamide], the IC50 in experiment [1] was 0.5 nM; in experiment [2], 1170 nM.

`CC(C)(C)OC(=O)N1CCC(c2cccc(N(Cc3ccc(C(=O)NO)cc3)C(=O)N3CCOCC3)c2)CC1` [Compound 489, tert-butyl 4-(3-(N-(4-(hydroxycarbamoyl)benzyl)morpholine-4-carboxamido)phenyl)piperidine-1-carboxylate]: the IC50 in experiment [1] was 0.5 nM; in experiment [2], 1220 nM.

As for `CC(=O)N1CCC(c2cccc(N(Cc3ccc(C(=O)NO)cc3)C(=O)N3CCOCC3)c2)CC1` [Compound 490, N-(3-(1-acetylpiperidin-4-yl)phenyl)-N-(4-(hydroxycarbamoyl)benzyl)morpholine-4-carboxamide], the IC50 came to 19 nM in experiment [1] and 703 nM in experiment [2].

`CS(=O)(=O)N1CCC(c2cccc(N(Cc3ccc(C(=O)NO)cc3)C(=O)N3CCOCC3)c2)CC1` [Compound 491, N-(4-(hydroxycarbamoyl)benzyl)-N-(3-(1-(methylsulfonyl)piperidin-4-yl)phenyl)morpholine-4-carboxamide]: the values for the IC50 in experiment [1] and in experiment [2] were 9 nM and 3220 nM, respectively.

On to `CC(C)NC(=O)N1CCC(c2cccc(N(Cc3ccc(C(=O)NO)cc3)C(=O)N3CCOCC3)c2)CC1` [Compound 492, N-(4-(hydroxycarbamoyl)benzyl)-N-(3-(1-(isopropylcarbamoyl)piperidin-4-yl)phenyl)morpholine-4-carboxamide], for which the results for the IC50 in experiment [1] and in experiment [2] were 2 nM and 1260 nM, respectively.

In the case of `O=C(NO)c1ccc(CN(C(=O)N2CCOCC2)c2cccc(C3CCNCC3)c2)cc1` [Compound 493, N-(4-(hydroxycarbamoyl)benzyl)-N-(3-(piperidin-4-yl)phenyl)morpholine-4-carboxamide hydrochloride], the results for the IC50 in experiment [1] and in experiment [2] were 11 nM and 883 nM, respectively.

Turning to `CC(=O)N1CCN(C(=O)N(Cc2ccc(C(=O)NO)cc2)c2cccc(C(F)(F)F)c2)CC1` [Compound 494, 4-acetyl-N-(4-(hydroxycarbamoyl)benzyl)-N-(3-(trifluoromethyl)phenyl)piperazine-1-carboxamide], the values for the IC50 in experiment [1] and in experiment [2] were 1 nM and 692 nM, respectively.
